# Laboratory results taken from patent US20120101257A1, “PROCESSES FOR PREPARING AMINO-SUBSTITUTED GAMMA-LACTAMS” (UNIVERSITE DE MONTREAL, priority 2009, published 2012).
# *1 amine or outer side, *2 acyl side, *3 side chain or, on linkers, in order; H or OH if unused. Where a SMILES comes first, the peptide text is derived from it. [ ]: non-standard residue; d: D form. The star is where a group is joined. X9 = O=C1C[C@H](N[*:1])CN1[C@@H](Cc1c[nH]c2ccccc12)C(=O)[*:2]; X10 = O=C1C[C@H](N[*:1])CN1[C@H](Cc1ccccc1)C(=O)[*:2]; X7 = N[C@H]1CC(=O)N([C@H](Cc2c[nH]c3ccccc23)C(=O)*)C1; X3 = N[C@@H]1CCN([C@H](Cc2c[nH]c3ccccc23)C(=O)*)C1=O; X4 = N[C@H]1CCN([C@H](Cc2c[nH]c3ccccc23)C(=O)*)C1=O; X1 = NCCCC[C@@H](C(N)=O)N1C[C@@H](N*)CC1=O; X2 = NCCCC[C@@H](C(N)=O)N1CC[C@H](N*)C1=O
# Key:
# GHS-R1a receptor = target: T1, GHS-R1a receptor (Homo sapiens, UniProt Q92847); experiment: GHS-R1a receptor competitive binding assay with 125I-Ghrelin; conditions: for IC50: competition with 125I-Ghrelin, GHS-R1a transiently transfected in LLC-PK1 cells; for loss of GHS-R1a binding affinity, factor relative to GHRP-6: factor of decrease compared to GHRP-6
# T1 construct: expressed in transfected cells; host or cells: LLC-PK1 cells, transient calcium phosphate transfection, membrane preparation
# Description: Transfection LLC-PK1 cells were seeded at 1.5×10^6 cells/10 cm Petri-dishes and grown for 24 h in DMEM high-glucose (4.5 g/L) with 10% foetal bovine serum supplemented with penicillin (10,000 Units/ml) and streptomycin (10,000 ug/ml), and cultured at 37° C., with 5% CO2. The medium was then replaced for another 4-5 hours before CaPO4 calcium phosphate transfection. The DNA solution consists of 40 μg of DNA in a volume of 500 μl in which was added 500 μl of 2 mM Tris-HCl pH 8.0, 0.2 mM EDTA pH 8.0 containing 500 mM CaCl2, to a final volume of 1 ml. Then 1 ml of 50 mM Hepes, 280 mM NaCl, 1.5 mM Na2HPO4 pH to 7.1 (HBSS) was added by alterning 1 drop/2 air bubbles. The transfection mix reaction was incubated at RT for 30 min. After the incubation period, 1 ml of the mix was added to each plate and distributed evenly for incubation. The media was replaced with standard DMEM-high glucose media for another 24 h and cells were collected for membrane preparation.
# Membrane preparation The experiment was carried out 4° C. unless specified. Cells were washed 2 times with PBS and with the homogenization buffer (HB) consisting of 50 mM Tris, 5 mM MgCl2, 2.5 mM EDTA, 30 ug/ml bacitracin at pH 7.3 and were scraped in Eppendorf tubes. Cells were lysed with 2 cycles of freeze/thawing using liquid nitrogen and were then centrifuged at 4° C. for 20 min at 10,000 g to collect the membranes. The membranes were re-suspended in a small volume of HB and aliquoted for storage at −80° C.
# The non-specific binding was determined by excess of competitive ligand at 10^−5M. The reaction was carried out at RT for 1 h.
# CD36 = target: T2, CD36 (Rattus norvegicus, UniProt Q07969); experiment: Competitive covalent CD36 binding assay using photoactivatable [125I]-Tyr-Bpa-Ala-Hexarelin; conditions: for IC50: displacement of [125I]-Tyr-Bpa-Ala-Hexarelin; for drop of CD36 affinity, factor: factor of decrease, reference peptide not stated
# T2 construct: the rat cardiac membranes (200 μg) as source of CD36; from tissue; host or cells: Sprague Dawley rat heart (cardiac membranes)
# Description: Animal use was in accordance with the Institutional Animal Ethics Committee and the Canadian Council on Animal Care guidelines for the use of experimental animals. Sprague Dawley (275-350 g) rats were anaesthetized with sodium pentobarbital and their hearts were promptly removed in ice-cold saline and the cardiac membranes were prepared according to Harigaya and Schwartz.^lxvi
# Nonspecific binding was defined as binding not displaced by 50 μM peptide. After an incubation period of 60 min at 22° C., membranes were submitted to UV irradiation at 365 nm for 15 min at 4° C. After centrifugation at 12 000 g for 15 min, the pellets were resuspended in 100 μl of sample buffer consisting of 62 mM Tris-HCl, pH 6.8, 2% SDS, 10% glycerol, 15% 2-mercapto-ethanol, and 0.05% bromophenol blue, and boiled for 5 min prior to being subjected to electrophoresis on 7.5% SDS-PAGE. The SDS/PAGE gels were fixed, colored in Coomassie Brilliant Blue R-250, dried, exposed to a storage phosphor intensifying screen (Amersham Biosciences), and analysed by using a Typhoon PhosphorImager (Amersham Biosciences) and ImageQuant 5.0 software to establish competition curves.
# T2 sequence (Q07969 whole entry): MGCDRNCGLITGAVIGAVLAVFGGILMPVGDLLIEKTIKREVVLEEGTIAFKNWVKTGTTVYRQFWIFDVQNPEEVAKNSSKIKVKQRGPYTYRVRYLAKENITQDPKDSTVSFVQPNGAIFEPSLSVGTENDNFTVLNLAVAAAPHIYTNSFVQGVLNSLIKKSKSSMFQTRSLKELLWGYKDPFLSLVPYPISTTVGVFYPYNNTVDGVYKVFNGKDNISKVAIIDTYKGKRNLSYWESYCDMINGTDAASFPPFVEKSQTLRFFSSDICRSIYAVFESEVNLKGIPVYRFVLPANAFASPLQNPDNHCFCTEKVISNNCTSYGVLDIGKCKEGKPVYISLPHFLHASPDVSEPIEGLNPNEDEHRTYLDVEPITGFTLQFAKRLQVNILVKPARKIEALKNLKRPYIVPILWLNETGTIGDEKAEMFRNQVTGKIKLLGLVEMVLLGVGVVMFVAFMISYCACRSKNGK
# T1 sequence (Q92847 whole entry): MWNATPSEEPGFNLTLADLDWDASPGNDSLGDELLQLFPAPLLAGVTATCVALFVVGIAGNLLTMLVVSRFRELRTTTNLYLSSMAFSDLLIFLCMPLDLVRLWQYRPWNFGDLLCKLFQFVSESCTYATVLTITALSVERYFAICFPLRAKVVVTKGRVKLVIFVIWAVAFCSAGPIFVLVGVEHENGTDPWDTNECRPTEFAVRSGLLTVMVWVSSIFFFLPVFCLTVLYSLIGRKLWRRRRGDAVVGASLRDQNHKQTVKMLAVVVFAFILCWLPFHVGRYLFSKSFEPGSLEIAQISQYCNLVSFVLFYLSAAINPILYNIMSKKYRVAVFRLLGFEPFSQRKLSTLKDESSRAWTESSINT
Compound,IC50 (GHS-R1a receptor) [µM],"loss of GHS-R1a binding affinity, factor relative to GHRP-6 (GHS-R1a receptor)",IC50 (CD36; rat cardiac membranes) [µM],"drop of CD36 affinity, factor (CD36)",affinity for the CD36 receptor (in words) (CD36; rat cardiac membranes)
"C[C@H](NC(=O)[C@@H](Cc1c[nH]c2ccccc12)N1CC[C@H](N)C1=O)C(=O)N[C@@H](Cc1c[nH]c2ccccc12)C(=O)N[C@H](Cc1ccccc1)C(=O)N[C@@H](CCCCN)C(N)=O [Compound 44, (S)-Agl-D-Trp-Ala-Trp-D-Phe-Lys-NH2] (X4-AW[dF]K-NH2)",0.0409,10,14.5,–,–
"C[C@@H](C(=O)N[C@@H](Cc1c[nH]c2ccccc12)C(=O)N[C@H](Cc1ccccc1)C(=O)N[C@@H](CCCCN)C(N)=O)N1CC[C@H](NC(=O)[C@@H](N)Cc2c[nH]cn2)C1=O [Compound 45, His-(S)-Agl-Ala-Trp-D-Phe-Lys-NH2]",28.6,–,13.4,15,–
"NCCCC[C@H](NC(=O)[C@H](Cc1ccccc1)NC(=O)[C@H](Cc1c[nH]c2ccccc12)N1CC[C@H](NC(=O)[C@@H](Cc2c[nH]c3ccccc23)NC(=O)[C@@H](N)Cc2c[nH]cn2)C1=O)C(N)=O [Compound 46, His-D-Trp-(S)-Agl-Trp-D-Phe-Lys-NH2]",2.39,10^3,7.45,–,retained similar affinity
"C[C@H](NC(=O)[C@@H](Cc1c[nH]c2ccccc12)NC(=O)[C@@H](N)Cc1c[nH]cn1)C(=O)N[C@H]1CCN([C@H](Cc2ccccc2)C(=O)N[C@@H](CCCCN)C(N)=O)C1=O [Compound 47, His-D-Trp-Ala-(S)-Agl-D-Phe-Lys-NH2]",> 10,–,> 10,–,–
"C[C@H](NC(=O)[C@@H](Cc1c[nH]c2ccccc12)NC(=O)[C@@H](N)Cc1c[nH]cn1)C(=O)N[C@@H](Cc1c[nH]c2ccccc12)C(=O)N[C@H]1CCN([C@@H](CCCCN)C(N)=O)C1=O [Compound 48, His-D-Trp-Ala-Trp-(S)-Agl-Lys-NH2] (H-H[dW]AW-X2)",3.1,–,21.4,15,–
"C[C@H](NC(=O)[C@@H](Cc1c[nH]c2ccccc12)N1C[C@@H](N)CC1=O)C(=O)N[C@@H](Cc1c[nH]c2ccccc12)C(=O)N[C@H](Cc1ccccc1)C(=O)N[C@@H](CCCCN)C(N)=O [Compound 49, (S)-Bgl-D-Trp-Ala-Trp-D-Phe-Lys-NH2] (X7-AW[dF]K-NH2)",0.371,–,> 10,–,–
"C[C@@H](C(=O)NCN[C@@H](Cc1c[nH]c2ccccc12)C(=O)N[C@H](Cc1ccccc1)C(=O)N[C@@H](CCCCN)C(N)=O)N1C[C@@H](NC(=O)[C@@H](N)Cc2c[nH]cn2)CC1=O [Compound 50, His-(S)-Bgl-Ala-Trp-D-Phe-Lys-NH2]",> 10,–,> 10,–,–
"NCCCC[C@H](NC(=O)[C@@H](Cc1ccccc1)NC(=O)[C@H](Cc1c[nH]c2ccccc12)N1C[C@@H](NC(=O)[C@@H](Cc2c[nH]c3ccccc23)NC(=O)[C@@H](N)Cc2cnc[nH]2)CC1=O)C(N)=O [Compound 51, His-D-Trp-(S)-Bgl-Trp-D-Phe-Lys-NH2] (H-H[dW][X9][dF]K-NH2)",0.654,–,> 10,–,–
"C[C@H](NC(=O)[C@@H](Cc1c[nH]c2ccccc12)NC(=O)[C@@H](N)Cc1c[nH]cn1)C(=O)N[C@H]1CC(=O)N([C@H](Cc2ccccc2)C(=O)N[C@@H](CCCCN)C(N)=O)C1 [Compound 52, His-D-Trp-Ala-(S)-Bgl-D-Phe-Lys-NH2] (H-H[dW]A[X10]K-NH2)",> 10,–,> 10,–,–
"C[C@H](NC(=O)[C@@H](Cc1c[nH]c2ccccc12)NC(=O)[C@@H](N)Cc1c[nH]cn1)C(=O)N[C@@H](Cc1c[nH]c2ccccc12)C(=O)N[C@H]1CC(=O)N([C@@H](CCCCN)C(N)=O)C1 [Compound 53, His-D-Trp-Ala-Trp-(S)-Bgl-Lys-NH2] (H-H[dW]AW-X1)",24.5,–,26.5,15,–
"C[C@H](NC(=O)[C@@H](Cc1c[nH]c2ccccc12)N1CC[C@@H](N)C1=O)C(=O)N[C@@H](Cc1c[nH]c2ccccc12)C(=O)N[C@H](Cc1ccccc1)C(=O)N[C@@H](CCCCN)C(N)=O [Compound 60, (R)-Agl-D-Trp-Ala-Trp-D-Phe-Lys-NH2] (X3-AW[dF]K-NH2)",3.46,–,8.72,–,–
